Data from patent US6737383B1, “Herbicidal oxadiazolidines” (priority 1999, dated 2004).

How the values were obtained:
bamyardgrass = assay: Test B flood test barnyardgrass; type: in vivo, Echinochloa crus-galli
Method in brief: (§1)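 Each value is a visual injury score relative to controls, with 10 meaning complete control and 0 no effect. Evaluation took place twelve to sixteen days after the 2-leaf-stage plants were treated and kept in the greenhouse.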

velvetleaf = assay: Test B pre/postemergence velvetleaf; type: in vivo, Abutilon theophrasti
Method in brief: (§2)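 Herbicidal effect was estimated by eye on a ten-point control scale after plants spent twelve to sixteen days in a greenhouse following soil or foliar treatment. Foliar sprays targeted plants at one to four leaves; all doses were formulated in a non-phytotoxic solvent with surfactant.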

wild oat = assay: Test B pre/postemergence wild oat; type: in vivo, Avena fatua
Method in brief: as §2

blackgrass = assay: Test B pre/postemergence blackgrass; type: in vivo, Alopecurus myosuroides
Method in brief: as §2

rape = assay: Test B pre/postemergence rape; type: in vivo, Brassica napus
Method in brief: as §2

pigweed = assay: Test B pre/postemergence pigweed; type: in vivo, Amaranthus retroflexus; settings: for Redroot pigweed plant response rating: Postemergence; for Plant response rating, Redroot pigweed: Preemergence
Method in brief: as §2

bedstraw = assay: Test B pre/postemergence bedstraw; type: in vivo, Galium aparine
Method in brief: as §2

purple nutsedge = assay: Test B pre/postemergence purple nutsedge; type: in vivo, Cyperus rotundus
Method in brief: as §2

wheat = assay: Test B pre/postemergence wheat; type: in vivo, Triticum aestivum
Method in brief: as §2

rice = assay: Test B flood test rice; type: in vivo, Oryza sativa
Method in brief: as §1

soybean = assay: Test B pre/postemergence soybean; type: in vivo, Glycine max
Method in brief: as §2

sugar beet = assay: Test B pre/postemergence sugar beet; type: in vivo, Beta vulgaris
Method in brief: as §2

smallflower flatsedge = assay: Test B flood test smallflower flatsedge; type: in vivo, Cyperus difformis
Method in brief: as §1

morningglory = assay: Test B pre/postemergence morningglory; type: in vivo, Ipomoea hederacea
Method in brief: as §2

giant foxtail = assay: Test B pre/postemergence giant foxtail; type: in vivo, Setaria faberii
Method in brief: as §2

duck salad = assay: Test B flood test duck salad; type: in vivo, Heteranthera limosa
Method in brief: as §1

[1] = Postemergence, Rate 62 g/ha, scale 0 to 10, 0 is no effect, 10 is complete control
[2] = Rate 125 g/ha, Postemergence section (flood test species), scale 0 to 10, 0 no effect, 10 complete control
[3] = Rate 500 g/ha, Postemergence section of Table B, 0 to 10 scale (0 no effect, 10 complete control)
[4] = flood test, listed under Postemergence, Rate 250 g/ha, scale 0 to 10, 0 no effect, 10 complete control
[5] = Postemergence, Rate 250 g/ha, scale 0 to 10, 0 no effect, 10 complete control
[6] = Preemergence, Rate 62 g/ha, scale 0 to 10, 0 is no effect, 10 is complete control
[7] = Preemergence, Rate 125 g/ha, scale 0 to 10 (0 no effect, 10 complete control)
[8] = Preemergence, Rate 250 g/ha, scale of 0 to 10 where 0 is no effect and 10 is complete control
[9] = Preemergence, Rate 500 g/ha, scale 0 (no effect) to 10 (complete control)
[10] = Rate 125 g/ha, Postemergence, scale 0 to 10, 0 no effect, 10 complete control
[11] = Rate 500 g/ha, Postemergence, 0 to 10 scale (0 no effect, 10 complete control)
[12] = Rate 62 g/ha, scale 0 to 10, 0 is no effect, 10 is complete control

## CC(C)N(C(=O)n1oc(=O)n(-c2c(Cl)cccc2Cl)c1=O)c1ccc(F)cc1 [Compound 19]
bamyardgrass; [1]
  Barnyardgrass plant response rating: 0
bamyardgrass; [2]
  Barnyardgrass plant response rating: 0
bamyardgrass; [3]
  Barnyardgrass plant response rating: 0
bamyardgrass; [4]
  Barnyardgrass plant response rating: 0
velvetleaf; [1]
  Velvetleaf plant response rating: 0
velvetleaf; [5]
  Velvetleaf plant response rating: 0
velvetleaf; [6]
  Plant response rating, Velvetleaf: 0
velvetleaf; [7]
  Plant response rating, Velvetleaf: 0
velvetleaf; [8]
  Plant response rating, Velvetleaf: 0
velvetleaf; [9]
  Velvetleaf plant response rating: 0
velvetleaf; [10]
  Velvetleaf plant response rating: 0
Wild oat; [1]
  Wild oats plant response rating: 0
Wild oat; [5]
  Wild oats plant response rating: 0
Wild oat; [7]
  Plant response rating, Wild oats: 0
Wild oat; [8]
  Plant response rating, Wild oats: 0
Wild oat; [9]
  Wild oats plant response rating: 0
Wild oat; [10]
  Wild oats plant response rating: 0
blackgrass; [1]
  Blackgrass plant response rating: 0
blackgrass; [5]
  Blackgrass plant response rating: 0
blackgrass; [6]
  Plant response rating, Blackgrass: 0
blackgrass; [7]
  Plant response rating, Blackgrass: 2
blackgrass; [8]
  Plant response rating, Blackgrass: 2
blackgrass; [9]
  Blackgrass plant response rating: 3
blackgrass; [10]
  Blackgrass plant response rating: 0
blackgrass; [11]
  Blackgrass plant response rating: 2
rape; [1]
  Rape plant response rating: 0
rape; [5]
  Rape plant response rating: 0
rape; [6]
  Plant response rating, Rape: 0
rape; [7]
  Plant response rating, Rape: 0
rape; [8]
  Plant response rating, Rape: 0
rape; [9]
  Rape plant response rating: 3
rape; [10]
  Rape plant response rating: 0
rape; [11]
  Rape plant response rating: 0
pigweed; [12]
  Redroot pigweed plant response rating: 0
  Plant response rating, Redroot pigweed: 0
pigweed; Rate 250 g/ha, scale 0 to 10, 0 no effect, 10 complete control
  Redroot pigweed plant response rating: 2
pigweed; Rate 125 g/ha, scale 0 to 10 (0 no effect, 10 complete control)
  Plant response rating, Redroot pigweed: 0
pigweed; Rate 250 g/ha, scale of 0 to 10 where 0 is no effect and 10 is complete control
  Plant response rating, Redroot pigweed: 2
pigweed; Rate 125 g/ha, scale 0 to 10, 0 no effect, 10 complete control
  Redroot pigweed plant response rating: 0
pigweed; Rate 500 g/ha, 0 to 10 scale (0 no effect, 10 complete control)
  Redroot pigweed plant response rating: 5
bedstraw; [1]
  Bedstraw plant response rating: 2
bedstraw; [5]
  Bedstraw plant response rating: 7
bedstraw; [6]
  Plant response rating, Bedstraw: 0
bedstraw; [7]
  Plant response rating, Bedstraw: 0
bedstraw; [8]
  Plant response rating, Bedstraw: 0
bedstraw; [9]
  Bedstraw plant response rating: 0
bedstraw; [10]
  Bedstraw plant response rating: 6
bedstraw; [11]
  Bedstraw plant response rating: 8
Purple nutsedge; [1]
  Nutsedge plant response rating: 0
Purple nutsedge; [5]
  Nutsedge plant response rating: 0
Purple nutsedge; [6]
  Plant response rating, Nutsedge: 0
Purple nutsedge; [7]
  Plant response rating, Nutsedge: 0
Purple nutsedge; [8]
  Plant response rating, Nutsedge: 0
Purple nutsedge; [9]
  Nutsedge plant response rating: 0
Purple nutsedge; [10]
  Nutsedge plant response rating: 0
Purple nutsedge; [11]
  Nutsedge plant response rating: 0
wheat; [1]
  Wheat plant response rating: 0
wheat; [5]
  Wheat plant response rating: 0
wheat; [6]
  Plant response rating, Wheat: 0
wheat; [7]
  Plant response rating, Wheat: 0
wheat; [8]
  Plant response rating, Wheat: 0
wheat; [9]
  Wheat plant response rating: 0
wheat; [10]
  Wheat plant response rating: 0
rice; [1]
  Rice plant response rating: 0
rice; [2]
  Rice plant response rating: 0
rice; [3]
  Rice plant response rating: 0
rice; [4]
  Rice plant response rating: 0
soybean; [1]
  Soybean plant response rating: 2
soybean; [5]
  Soybean plant response rating: 3
soybean; [6]
  Plant response rating, Soybean: 0
soybean; [7]
  Plant response rating, Soybean: 0
soybean; [8]
  Plant response rating, Soybean: 0
soybean; [9]
  Soybean plant response rating: 0
soybean; [10]
  Soybean plant response rating: 3
Sugar beet; [1]
  Sugarbeets plant response rating: 0
Sugar beet; [5]
  Sugarbeets plant response rating: 0
Sugar beet; [6]
  Plant response rating, Sugarbeets: 0
Sugar beet; [7]
  Plant response rating, Sugarbeets: 0
Sugar beet; [8]
  Plant response rating, Sugarbeets: 1
Sugar beet; [9]
  Sugarbeets plant response rating: 2
Sugar beet; [10]
  Sugarbeets plant response rating: 0
Smallflower flatsedge; [1]
  S. Flatsedge plant response rating: 0
Smallflower flatsedge; [2]
  S. Flatsedge plant response rating: 0
Smallflower flatsedge; [4]
  S. Flatsedge plant response rating: 0
morningglory; [1]
  Morningglory plant response rating: 0
morningglory; [5]
  Morningglory plant response rating: 0
morningglory; [6]
  Plant response rating, Morningglory: 0
morningglory; [7]
  Plant response rating, Morningglory: 0
morningglory; [8]
  Plant response rating, Morningglory: 0
morningglory; [9]
  Morningglory plant response rating: 0
morningglory; [10]
  Morningglory plant response rating: 0
morningglory; [11]
  Morningglory plant response rating: 2
Giant foxtail; [1]
  Giant foxtail plant response rating: 0
Giant foxtail; [5]
  Giant foxtail plant response rating: 0
Giant foxtail; [6]
  Plant response rating, Giant foxtail: 0
Giant foxtail; [7]
  Plant response rating, Giant foxtail: 2
Giant foxtail; [8]
  Plant response rating, Giant foxtail: 4
Giant foxtail; [9]
  Giant foxtail plant response rating: 5
Giant foxtail; [10]
  Giant foxtail plant response rating: 0
Giant foxtail; [11]
  Giant foxtail plant response rating: 1
Duck salad; [1]
  Ducksalad plant response rating: 0
Duck salad; [2]
  Ducksalad plant response rating: 0
Duck salad; [3]
  Ducksalad plant response rating: 0
Duck salad; [4]
  Ducksalad plant response rating: 0
